US20190322676A1, “CERAMIDE GALACTOSYLTRANSFERASE INHIBITORS FOR THE TREATMENT OF DISEASE” (BioMarin Pharmaceutical Inc., priority 2016, published 2019)
Counter-ions that a name gives are not always drawn.

Molecular target: T1, human CGT (ceramide galactosyltransferase), CHO/CGT lysate (Homo sapiens, UniProt Q16880)
T1 construct: Full-length human CGT cDNA was cloned into the BamH1/Xho1 site of pcDNA3.1 (+); expressed in transfected cells; host or cells: Chinese hamster ovary (CHO) cells; lysate prepared with M-PER
T1 sequence (Q16880 21-541): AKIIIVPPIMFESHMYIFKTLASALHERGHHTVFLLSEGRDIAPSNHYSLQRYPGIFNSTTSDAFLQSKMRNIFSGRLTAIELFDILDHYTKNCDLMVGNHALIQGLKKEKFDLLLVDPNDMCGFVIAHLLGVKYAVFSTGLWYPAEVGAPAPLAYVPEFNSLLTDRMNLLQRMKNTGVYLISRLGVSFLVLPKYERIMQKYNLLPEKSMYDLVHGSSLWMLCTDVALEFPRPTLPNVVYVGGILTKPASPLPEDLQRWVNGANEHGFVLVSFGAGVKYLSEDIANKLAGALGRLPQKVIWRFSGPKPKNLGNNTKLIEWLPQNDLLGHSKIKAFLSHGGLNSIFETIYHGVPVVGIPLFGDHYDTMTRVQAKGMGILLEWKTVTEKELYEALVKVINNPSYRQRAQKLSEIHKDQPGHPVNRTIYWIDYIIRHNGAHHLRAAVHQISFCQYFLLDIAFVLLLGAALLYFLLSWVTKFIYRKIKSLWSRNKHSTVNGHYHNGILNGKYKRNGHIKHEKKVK
Assay: CGT enzyme assay, RapidFire/MS/MS readout (Table 1 ranges with one asterisk *)
Type: biochemical
Details: RapidFire method (range with one asterisk *)
Procedure, shortened: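 Lysate (4 μg) of CHO cells transfected with full-length human CGT incubated 1 h at 37 °C with compound (0.001–50 μM) in pH 7.2 HEPES buffer with 10 μM C6-NBD-dihydro-ceramide, 17.5 μM UDP-galactose, Mg2+/Mn2+, CHAPS, BSA, 0.5% DMSO; ** set also contained 0.01% Tween 80. Product quantified by RapidFire/MS/MS, normalized to internal standard; IC50 from sigmoidal variable-slope fits.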

SMILES	IC50 [µM]
CCCCOc1ccc(C(F)(F)[C@@H](C(=O)N2C3CCC2CC(N)C3)N(C)S(=O)(=O)c2ccc3cc(OC4CCCC4)ccc3c2)cc1 (stereo partly drawn) [Compound 51-1, N-((2R)-3-(3-amino-8-azabicyclo[3.2.1]octan-8-yl)-1-(4-butoxyphenyl)-1,1-difluoro-3-oxopropan-2-yl)-6-(cyclopentyloxy)-N-methylnaphthalene-2-sulfonamide]	1 to 10
CCCCOc1ccc(C(F)(F)[C@H](C(=O)N2C3CCC2CC(N)C3)N(C)S(=O)(=O)c2ccc3cc(OC4CCCC4)ccc3c2)cc1 (stereo partly drawn) [Compound 51-2, N-((2S)-3-(3-amino-8-azabicyclo[3.2.1]octan-8-yl)-1-(4-butoxyphenyl)-1,1-difluoro-3-oxopropan-2-yl)-6-(cyclopentyloxy)-N-methylnaphthalene-2-sulfonamide]	1 to 10
CN([C@H](C(=O)N1C2CCC1CC(N)C2)C(F)(F)c1ccc(Cl)cc1)S(=O)(=O)c1ccc2cc(OC3CCCC3)ccc2c1 (stereo partly drawn) [Compound 52-1, N-((2R)-3-(3-amino-8-azabicyclo[3.2.1]octan-8-yl)-1-(4-chlorophenyl)-1,1-difluoro-3-oxopropan-2-yl)-6-(cyclopentyloxy)-N-methylnaphthalene-2-sulfonamide]	< 1
CN([C@@H](C(=O)N1C2CCC1CC(N)C2)C(F)(F)c1ccc(Cl)cc1)S(=O)(=O)c1ccc2cc(OC3CCCC3)ccc2c1 (stereo partly drawn) [Compound 52-2, N-((2S)-3-(3-amino-8-azabicyclo[3.2.1]octan-8-yl)-1-(4-chlorophenyl)-1,1-difluoro-3-oxopropan-2-yl)-6-(cyclopentyloxy)-N-methylnaphthalene-2-sulfonamide]	30 to 100
CCCCOc1ccc(C(F)(F)[C@@H](C(=O)N2CCC(N)CC2)N(C)S(=O)(=O)c2ccc3cc(OC4CCCC4)ccc3c2)cc1 [Compound 53-1, (R)—N-(3-(4-aminopiperidin-1-yl)-1-(4-butoxyphenyl)-1,1-difluoro-3-oxopropan-2-yl)-6-(cyclopentyloxy)-N-methylnaphthalene-2-sulfonamide]	1 to 10
CCCCOc1ccc(C(F)(F)[C@H](C(=O)N2CCC(N)CC2)N(C)S(=O)(=O)c2ccc3cc(OC4CCCC4)ccc3c2)cc1 [Compound 53-2, (S)—N-(3-(4-aminopiperidin-1-yl)-1-(4-butoxyphenyl)-1,1-difluoro-3-oxopropan-2-yl)-6-(cyclopentyloxy)-N-methylnaphthalene-2-sulfonamide]	10 to 30
NC1CC2CCC(C1)N2C(=O)[C@@H](NS(=O)(=O)c1ccc2cc(OC3CCCC3)ccc2c1)C(F)(F)c1ccc(C(F)(F)F)cc1 (stereo partly drawn) [Compound 54-1, N-((2R)-3-(3-amino-8-azabicyclo[3.2.1]octan-8-yl)-1,1-difluoro-3-oxo-1-(4-(trifluoromethyl)phenyl)propan-2-yl)-6-(cyclopentyloxy)naphthalene-2-sulfonamide]	< 1
NC1CC2CCC(C1)N2C(=O)[C@H](NS(=O)(=O)c1ccc2cc(OC3CCCC3)ccc2c1)C(F)(F)c1ccc(C(F)(F)F)cc1 (stereo partly drawn) [Compound 54-2, N-((2S)-3-(3-amino-8-azabicyclo[3.2.1]octan-8-yl)-1,1-difluoro-3-oxo-1-(4-(trifluoromethyl)phenyl)propan-2-yl)-6-(cyclopentyloxy) naphthalene-2-sulfonamide]	10 to 30
NC1CC2CCC(C1)N2C(=O)[C@@H](NS(=O)(=O)c1ccc2cc(OC3CCCC3)ccc2c1)C(F)(F)c1ccc(-c2ccc(C(F)(F)F)cc2)cc1 (stereo partly drawn) [Compound 55-1, N-((2R)-3-(3-amino-8-azabicyclo[3.2.1]octan-8-yl)-1,1-difluoro-3-oxo-1-(4′-(trifluoromethyl)-[1,1′-biphenyl]-4-yl)propan-2-yl)-6-(cyclopentyloxy) naphthalene-2-sulfonamide trifluoroacetate]	< 1
